Assay results taken from PMC12035797, “Peptidomimetics Activating the Proteasome: A New Perspective for Parkinson’s Treatment” (Journal of Medicinal Chemistry, 2025).
Where a SMILES comes first, the peptide text is derived from it. [ ]: non-standard residue; d: D form. N(4-MeOBn)Gly = COc1ccc(CNCC(=O)O)cc1; NMeY = CN[C@@H](Cc1ccc(O)cc1)C(=O)O; Gly(N-CH2CH2OH) = O=C(O)CNCCO; NMeK = CN[C@@H](CCCCN)C(=O)O; Nlys = NCCCCNCC(=O)O

Legend:
Format in all cases: biochemical
[1] = test system: T1, human 20S proteasome, ChT-L peptidase; test: Chymotrypsin-like (ChT-L) activity of h20S probed with Suc-LLVY-AMC
T1 construct: human proteasome isolated from erythrocytes; from tissue; host or cells: human erythrocytes
Experimental: (§1) To assess the influence of substitutions increasing proteolytic stability on the modulators’ capacity to stimulate chymotrypsin-like, trypsin-like, and caspase-like activity of h20S, we used classic fluorogenic substrates: Suc-LLVY-AMC, Boc-LRR-AMC, and Z-LLE-AMC, respectively.
(§2) The effect of all synthesized peptidomimetics on the catalytic activity of the proteasome was tested using a human proteasome isolated from erythrocytes. Suc-LLVY-AMC, Boc-LRR-AMC, and Z-LLE-AMC fluorogenic substrates (Bachem, Bubendorf, Switzerland) were used for assessment of the chymotrypsin-, trypsin-, and caspase-like activities, respectively. A homemade FRET-type substrate Dabcyl-EDANS (Lys(Dabcyl)-[…]EDANS)-Gly)[26] was used as an additional probe. Stock solutions of the substrates and tested peptidomimetics were prepared in dimethyl sulfoxide (DMSO), ensuring that the final concentration of DMSO in all samples remained consistent at 2%. The small fluorogenic substrates were used at a final concentration of 100 μM, while Dabcyl-EDANS was prepared at a final concentration of 15 μM. […] Activity tests were conducted in 96-well plates using 50 mM Tris/HCl, pH 8.0, as an assay buffer. The final concentration of h20S proteasome was adjusted to 0.002 mg/mL (2.8 nM). The fluorescence of released aminomethylcoumarin (AMC) was monitored at 460 nm (λex was 380 nm), while the hydrolysis of Dabcyl-EDANS was detected by measuring emission at 493 nm (λex was set at 335 nm). Fluorescence measurements were taken continuously every 2 min over a 60 min period at 37 °C using a Tecan Infinite M200Pro spectrofluorometer (Tecan Trading AG, Männedorf, Switzerland). All activity assays were performed in at least three independent replicates. The relative activity was calculated in relation to the catalytic activity of the vehicle (DMSO)-treated latent proteasome, which was regarded as 100%. Statistical analysis was performed using the one-way ANOVA followed by Tukey’s post-hoc test. P-value <0.05 was considered statistically significant.

human 20S proteasome = test system: T2, human 20S proteasome; test: h20S proteasome activity probed with FRET-type Dabcyl-EDANS substrate; settings: for h20S stimulating capacity, Dabcyl-EDANS: 1.0-50 μM modulator
T2 construct: human proteasome isolated from erythrocytes; from tissue; host or cells: human erythrocytes
Description: (§3) To assess the influence of substitutions increasing proteolytic stability on the modulators’ capacity to stimulate chymotrypsin-like, trypsin-like, and caspase-like activity of h20S, we used classic fluorogenic substrates: Suc-LLVY-AMC, Boc-LRR-AMC, and Z-LLE-AMC, respectively. To confirm the observed stimulating capacity, we also conducted assays using a FRET-type reporter peptide with a sequence consisting of 11 residues (Lys(Dabcyl)-[…]EDANS)-Gly).[27] As we checked, the activated 20S hydrolyzed this substrate after more than one residue (Lys, Gly, and Glu), which makes it a probe better reflecting the concerted action of the proteasome’s three peptidases. […] The discrepancy in the level of activation was mainly due to the greater sensitivity of the FRET substrate, as it is not digested, unlike the AMC-based probes, by the latent proteasome, which results in greater differences in fluorescence relative to the controls. […] The ability to affect individual peptidases of the proteasome in different ways is most likely related to the allosteric mechanism of action of the modulators. Binding at a site distant from the catalytic compartment may result in greater diversity in the pathways by which the signal reaches active sites and differential effects of that signal on each peptidase.
(§4) The effect of all synthesized peptidomimetics on the catalytic activity of the proteasome was tested using a human proteasome isolated from erythrocytes. Suc-LLVY-AMC, Boc-LRR-AMC, and Z-LLE-AMC fluorogenic substrates (Bachem, Bubendorf, Switzerland) were used for assessment of the chymotrypsin-, trypsin-, and caspase-like activities, respectively. A homemade FRET-type substrate Dabcyl-EDANS (Lys(Dabcyl)-[…]EDANS)-Gly)[26] was used as an additional probe. Stock solutions of the substrates and tested peptidomimetics were prepared in dimethyl sulfoxide (DMSO), ensuring that the final concentration of DMSO in all samples remained consistent at 2%. The small fluorogenic substrates were used at a final concentration of 100 μM, while Dabcyl-EDANS was prepared at a final concentration of 15 μM. Modulators were tested in concentrations ranging from 1.0 to 50 μM, with compounds containing TAT or 6R sequences tested at lower concentrations ranging from 0.5 to 10 μM. Activity tests were conducted in 96-well plates using 50 mM Tris/HCl, pH 8.0, as an assay buffer. The final concentration of h20S proteasome was adjusted to 0.002 mg/mL (2.8 nM). The fluorescence of released aminomethylcoumarin (AMC) was monitored at 460 nm (λex was 380 nm), while the hydrolysis of Dabcyl-EDANS was detected by measuring emission at 493 nm (λex was set at 335 nm). Fluorescence measurements were taken continuously every 2 min over a 60 min period at 37 °C using a Tecan Infinite M200Pro spectrofluorometer (Tecan Trading AG, Männedorf, Switzerland). All activity assays were performed in at least three independent replicates. The relative activity was calculated in relation to the catalytic activity of the vehicle (DMSO)-treated latent proteasome, which was regarded as 100%. Statistical analysis was performed using the one-way ANOVA followed by Tukey’s post-hoc test. P-value <0.05 was considered statistically significant.

[2] = test system: T3, human 20S proteasome, T-L peptidase; test: Trypsin-like (T-L) activity of h20S probed with Boc-LRR-AMC; settings: 100 μM Boc-LRR-AMC
T3 construct: human proteasome isolated from erythrocytes; from tissue; host or cells: human erythrocytes
Experimental: as §1, §2

[3] = test system: T4, human 20S proteasome, C-L peptidase; test: Caspase-like (C-L) activity of h20S probed with Z-LLE-AMC; settings: 100 μM Z-LLE-AMC
T4 construct: human proteasome isolated from erythrocytes; from tissue; host or cells: human erythrocytes
Description: as §3, §4

[4] = 100 μM Suc-LLVY-AMC, whole concentration range

stimulation of h20S activity, Suc-LLVY-AMC probe ([1]; 100 μM Suc-LLVY-AMC, level reached vs latent proteasome)	h20S stimulating capacity, Dabcyl-EDANS (human 20S proteasome; 15 μM Dabcyl-EDANS)	stimulation of h20S activity, Dabcyl-EDANS probe (human 20S proteasome; 15 μM Dabcyl-EDANS, level reached vs latent proteasome)	h20S stimulating potency, Dabcyl-EDANS (human 20S proteasome; at the lowest concentrations)	ChT-L stimulating capacity, Suc-LLVY-AMC [1, 4]	T-L stimulating capacity, Boc-LRR-AMC [2]	C-L stimulating capacity, Z-LLE-AMC [3]	ChT-L stimulating capacity, Suc-LLVY-AMC ([1]; at higher concentrations)	ChT-L stimulating capacity, Suc-LLVY-AMC ([1]; at 1 μM concentration)	Compound
–	least effective stimulants	–	–	least effective stimulants	weakest activators	weakest activators	–	–	COc1ccc(CN(CC(=O)N[C@@H](CCCNC(=N)N)C(=O)N[C@@H](CCCNC(=N)N)C(=O)N[C@@H](Cc2ccc(O)cc2)C(=O)N[C@@H](Cc2ccc(O)cc2)C(=O)N[C@@H](CO)C(=O)O)C(=O)[C@H](CC(=O)O)NC(=O)[C@H](CCCCN)NC(=O)[C@H](CO)NC(=O)CNC(=O)[C@@H](NC(=O)[C@H](Cc2ccccc2)NC(=O)[C@H](Cc2ccc(O)cc2)NC(=O)[C@@H](N)CCCCN)[C@@H](C)O)cc1 [2e] (H-KYFTGSKD[N(4-MeOBn)Gly]RRYYS-OH)
–	comparable stimulatory capacity	–	–	–	comparable stimulatory capacity	comparable stimulatory capacity	efficiency comparable to 2 and 2a	–	C[C@@H](O)[C@H](NC(=O)[C@H](Cc1ccccc1)NC(=O)[C@H](Cc1ccc(O)cc1)NC(=O)[C@@H](N)CCCCN)C(=O)NCC(=O)N[C@@H](CO)C(=O)N(CCCCN)CC(=O)N[C@@H](CC(=O)O)C(=O)N[C@@H](Cc1ccc(O)cc1)C(=O)N[C@@H](CCCNC(=N)N)C(=O)N[C@@H](CCCNC(=N)N)C(=O)N[C@@H](Cc1ccc(O)cc1)C(=O)N[C@@H](Cc1ccc(O)cc1)C(=O)N[C@@H](CO)C(=O)O [2b] (H-KYFTGS[Nlys]DYRRYYS-OH)
–	comparable stimulatory capacity	–	–	–	comparable stimulatory capacity	comparable stimulatory capacity	as inefficient as 2e	same moderate efficiency	COc1ccc(CN(CC(=O)N[C@@H](Cc2ccccc2)C(=O)N[C@H](C(=O)NCC(=O)N[C@@H](CO)C(=O)N[C@@H](CCCCN)C(=O)N[C@@H](CC(=O)O)C(=O)N[C@@H](Cc2ccc(O)cc2)C(=O)N[C@@H](CCCNC(=N)N)C(=O)N[C@@H](CCCNC(=N)N)C(=O)N[C@@H](Cc2ccc(O)cc2)C(=O)N[C@@H](Cc2ccc(O)cc2)C(=O)N[C@@H](CO)C(=O)O)[C@@H](C)O)C(=O)[C@@H](N)CCCCN)cc1 [2d] (H-K[N(4-MeOBn)Gly]FTGSKDYRRYYS-OH)
–	less strongly than 1	–	–	lower capacity of activating h20S	–	–	–	–	C[C@@H](O)[C@H](NC(=O)[C@H](Cc1ccccc1)NC(=O)[C@H](Cc1ccc(O)cc1)NC(=O)[C@@H](N)CCCCN)C(=O)NCC(=O)N[C@@H](CO)C(=O)N[C@@H](CCCCN)C(=O)N[C@@H](CC(=O)O)C(=O)N[C@@H](Cc1c[nH]c2ccccc12)C(=O)N[C@@H](CCCNC(=N)N)C(=O)N(CCO)CC(=O)N[C@@H](Cc1ccc(O)cc1)C(=O)N[C@@H](Cc1ccc(O)cc1)C(=O)N[C@@H](CO)C(=O)O [1b] (H-KYFTGSKDWR[Gly(N-CH2CH2OH)]YYS-OH)
–	most effective h20S stimulators	–	–	most effective h20S stimulators	–	–	–	–	H-KYFTGSKDYRRYYS-OH [compound 2]
–	comparable stimulatory capacity	–	–	–	comparable stimulatory capacity	comparable stimulatory capacity	efficiency comparable to 2 and 2a	same moderate efficiency	C[C@@H](O)[C@H](NC(=O)[C@H](Cc1ccccc1)NC(=O)[C@H](Cc1ccc(O)cc1)NC(=O)CNCCCCN)C(=O)NCC(=O)N[C@@H](CO)C(=O)N(CCCCN)CC(=O)N[C@@H](CC(=O)O)C(=O)N[C@@H](Cc1ccc(O)cc1)C(=O)N[C@@H](CCCNC(=N)N)C(=O)N[C@@H](CCCNC(=N)N)C(=O)N[C@@H](Cc1ccc(O)cc1)C(=O)N[C@@H](Cc1ccc(O)cc1)C(=O)N[C@@H](CO)C(=O)O [2c] (H-[Nlys]YFTGS[Nlys]DYRRYYS-OH)

Compound	stimulation of h20S activity, Suc-LLVY-AMC probe ([1]; 100 μM Suc-LLVY-AMC, level reached vs latent proteasome)	h20S stimulating capacity, Dabcyl-EDANS (human 20S proteasome; 15 μM Dabcyl-EDANS)	stimulation of h20S activity, Dabcyl-EDANS probe (human 20S proteasome; 15 μM Dabcyl-EDANS, level reached vs latent proteasome)	h20S stimulating potency, Dabcyl-EDANS (human 20S proteasome; at the lowest concentrations)	ChT-L stimulating capacity, Suc-LLVY-AMC [1, 4]	T-L stimulating capacity, Boc-LRR-AMC [2]	C-L stimulating capacity, Z-LLE-AMC [3]	ChT-L stimulating capacity, Suc-LLVY-AMC ([1]; at higher concentrations)	ChT-L stimulating capacity, Suc-LLVY-AMC ([1]; at 1 μM concentration)
CN[C@@H](CCCCN)C(=O)N(C)[C@@H](Cc1ccc(O)cc1)C(=O)N[C@@H](Cc1ccccc1)C(=O)N[C@H](C(=O)NCC(=O)N[C@@H](CO)C(=O)N[C@@H](CCCCN)C(=O)N[C@@H](CC(=O)O)C(=O)N[C@@H](Cc1c[nH]c2ccccc12)C(=O)N[C@@H](CCCNC(=N)N)C(=O)N[C@@H](CO)C(=O)N[C@@H](Cc1ccc(O)cc1)C(=O)N[C@@H](Cc1ccc(O)cc1)C(=O)N[C@@H](CO)C(=O)O)[C@@H](C)O [1e] (H-[NMeK][NMeY]FTGSKDWRSYYS-OH)	8 fold	did not lose their ability to effectively stimulate h20S	12 fold	even more potent than 1	–	–	–	–	–
RKKRRQRRR [tat, fragment of the HIV-1 Tat 48–58 peptide used as cell-penetrating peptide, tested alone as control, reference compound]	–	–	–	–	proteasome inhibition	–	–	–	–
